Experimental data taken from US10597388B2, “Pyridazinone herbicides” (FMC CORPORATION, priority 2014, dated 2020).

Legend:
Test in all cases: Test D controlled growth environment herbicide test, pre- and postemergence
Type in all cases: in vivo
[1] = test system: barley, winter (winter barley, Hordeum vulgare)
Method in brief: (§1)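 Species sown in silt loam and sprayed preemergence, or grown in peat-based medium to 2–18 cm (1- to 4-leaf stage) and sprayed postemergence, with compounds in non-phytotoxic solvent plus surfactant. Visual injury scored versus controls after 14–21 d in a controlled environment, 0 (no effect) to 100 (complete control).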

[2] = test system: blackgrass (Alopecurus myosuroides)
Method in brief: as §1

[3] = test system: chickweed (common chickweed, Stellaria media)
Method in brief: as §1

[4] = test system: deadnettle (henbit deadnettle, Lamium amplexicaule)
Method in brief: as §1

[5] = test system: foxtail, green (green foxtail, Setaria viridis)
Method in brief: as §1

[6] = test system: galium (catchweed bedstraw, Galium aparine)
Method in brief: as §1

[7] = test system: kochia (Kochia scoparia)
Method in brief: as §1

[8] = test system: lambsquarters (Chenopodium album)
Method in brief: as §1

[9] = test system: pigweed (Amaranthus retroflexus)
Method in brief: as §1

[10] = test system: ryegrass, Italian (Italian ryegrass, Lolium multiflorum)
Method in brief: as §1

[11] = test system: speedwell (bird's-eye speedwell, Veronica persica)
Method in brief: as §1

[12] = test system: wheat, winter (winter wheat, Triticum aestivum)
Method in brief: as §1

[13] = test system: windgrass (Apera spica-venti)
Method in brief: as §1

[14] = Postemergence, 31 g ai/ha, scale 0 to 100 (0 no effect, 100 complete control)
[15] = Postemergence, 125 g ai/ha, visual rating on scale 0 (no effect) to 100 (complete control), 14 to 21 d
[16] = Postemergence, 250 g ai/ha, scale 0 to 100 (0 no effect, 100 complete control)
[17] = Preemergence, 62 g ai/ha, scale 0 to 100 (0 no effect, 100 complete control)
[18] = Preemergence, 125 g ai/ha, scale 0 to 100 (0 no effect, 100 complete control)
[19] = Preemergence, 250 g ai/ha, scale 0 to 100 (0 no effect, 100 complete control)
[20] = postemergence, 62 g ai/ha, scale 0 to 100, 0 no effect, 100 complete control

CCOC(=O)Oc1c(C)nn(C)c(=O)c1-c1c(C)sc2ccc(C)cc12 [Compound 82]
10: Deadnettle plant response rating [4, 14] | Plant response rating (scale of 0 to 100), Deadnettle ([4]; Preemergence, 31 g ai/ha) | Plant response rating, Deadnettle [4, 20] | Plant response rating, Wheat, Winter [12, 19]
90: Plant response rating, Chickweed [3, 20] | Plant response rating, Foxtail, Green [5, 16] | Plant response rating, Foxtail, Green [5, 18] | Galium plant response rating [6, 14] | Kochia plant response rating [7, 14] | Pigweed plant response rating [9, 14] | Plant response rating, Ryegrass, Italian [10, 15] | Plant response rating, Ryegrass, Italian [10, 16] | Plant response rating, Ryegrass, Italian [10, 18]
100: Plant response rating, Chickweed [3, 16] | Plant response rating (scale of 0 to 100), Chickweed ([3]; Preemergence, 31 g ai/ha) | Plant response rating (scale of 0 to 100), Chickweed ([3]; Preemergence, 62 g ai/ha) | Plant response rating, Chickweed [3, 18] | Plant response rating, Chickweed [3, 19] | Plant response rating, Galium [6, 15] | Plant response rating, Galium [6, 16] | Plant response rating, Galium [6, 20] | Plant response rating, Kochia [7, 15] | Plant response rating, Kochia [7, 16] | Plant response rating, Kochia [7, 19] | Plant response rating, Lambsquarters [8, 16] | Plant response rating, Lambsquarters [8, 18] | Plant response rating, Lambsquarters [8, 19] | Plant response rating, Pigweed [9, 15] | Plant response rating, Pigweed [9, 16] | Plant response rating (scale of 0 to 100), Pigweed ([9]; Preemergence, 31 g ai/ha) | Plant response rating (scale of 0 to 100), Pigweed ([9]; Preemergence, 62 g ai/ha) | Plant response rating, Pigweed [9, 18] | Plant response rating, Pigweed [9, 19] | Plant response rating, Pigweed [9, 20] | Plant response rating, Speedwell [11, 18] | Plant response rating, Speedwell [11, 19] | Plant response rating, Windgrass [13, 18] | Plant response rating, Windgrass [13, 19]
85: Plant response rating, Foxtail, Green [5, 15] | Plant response rating, Foxtail, Green [5, 19] | Plant response rating, Galium [6, 19] | Ryegrass, Italian plant response rating [10, 14] | Plant response rating, Ryegrass, Italian [10, 20] | Plant response rating, Speedwell [11, 15] | Plant response rating, Speedwell [11, 16] | Plant response rating, Windgrass [13, 16]
95: Plant response rating, Chickweed [3, 15] | Plant response rating, Kochia [7, 20] | Lambsquarters plant response rating [8, 14] | Plant response rating, Lambsquarters [8, 15] | Plant response rating (scale of 0 to 100), Lambsquarters ([8]; Preemergence, 62 g ai/ha) | Plant response rating, Lambsquarters [8, 20] | Plant response rating, Ryegrass, Italian [10, 19]
15: Plant response rating (scale of 0 to 100), Kochia ([7]; Preemergence, 62 g ai/ha)
80: Plant response rating, Blackgrass [2, 16] | Plant response rating, Blackgrass [2, 19] | Chickweed plant response rating [3, 14] | Plant response rating, Foxtail, Green [5, 20] | Plant response rating, Galium [6, 18] | Plant response rating (scale of 0 to 100), Ryegrass, Italian ([10]; Preemergence, 62 g ai/ha) | Plant response rating, Windgrass [13, 15] | Plant response rating (scale of 0 to 100), Windgrass ([13]; Preemergence, 62 g ai/ha)
0: Barley, Winter plant response rating [1, 14] | Plant response rating, Barley, Winter [1, 15] | Plant response rating, Barley, Winter [1, 16] | Plant response rating (scale of 0 to 100), Barley, Winter ([1]; Preemergence, 31 g ai/ha) | Plant response rating, Barley, Winter [1, 17] | Plant response rating, Barley, Winter [1, 20] | Plant response rating (scale of 0 to 100), Kochia ([7]; Preemergence, 31 g ai/ha) | Wheat, Winter plant response rating [12, 14] | Plant response rating, Wheat, Winter [12, 15] | Plant response rating, Wheat, Winter [12, 16] | Plant response rating (scale of 0 to 100), Wheat, Winter ([12]; Preemergence, 31 g ai/ha) | Plant response rating (scale of 0 to 100), Wheat, Winter ([12]; Preemergence, 62 g ai/ha) | Plant response rating, Wheat, Winter [12, 18] | Plant response rating, Wheat, Winter [12, 20]
60: Plant response rating (scale of 0 to 100), Galium ([6]; Preemergence, 31 g ai/ha) | Plant response rating (scale of 0 to 100), Galium ([6]; Preemergence, 62 g ai/ha)
75: Plant response rating, Blackgrass [2, 15] | Plant response rating, Blackgrass [2, 17] | Plant response rating, Blackgrass [2, 18] | Foxtail, Green plant response rating [5, 14] | Plant response rating (scale of 0 to 100), Foxtail, Green ([5]; Preemergence, 62 g ai/ha) | Plant response rating, Kochia [7, 18] | Plant response rating (scale of 0 to 100), Lambsquarters ([8]; Preemergence, 31 g ai/ha) | Plant response rating (scale of 0 to 100), Ryegrass, Italian ([10]; Preemergence, 31 g ai/ha) | Plant response rating (scale of 0 to 100), Speedwell ([11]; Preemergence, 31 g ai/ha) | Plant response rating (scale of 0 to 100), Speedwell ([11]; Preemergence, 62 g ai/ha) | Plant response rating, Speedwell [11, 20] | Plant response rating (scale of 0 to 100), Windgrass ([13]; Preemergence, 31 g ai/ha) | Plant response rating, Windgrass [13, 20]
5: Plant response rating, Barley, Winter [1, 18]
70: Plant response rating (scale of 0 to 100), Blackgrass ([2]; Preemergence, 31 g ai/ha) | Plant response rating, Blackgrass [2, 20] | Plant response rating, Deadnettle [4, 19] | Speedwell plant response rating [11, 14] | Windgrass plant response rating [13, 14]
45: Blackgrass plant response rating [2, 14]
25: Plant response rating, Barley, Winter [1, 19] | Plant response rating, Deadnettle [4, 15] | Plant response rating (scale of 0 to 100), Deadnettle ([4]; Preemergence, 62 g ai/ha) | Plant response rating, Deadnettle [4, 18]
35: Plant response rating, Deadnettle [4, 16] | Plant response rating (scale of 0 to 100), Foxtail, Green ([5]; Preemergence, 31 g ai/ha)
